# Measured values from US4822791A, “Pharmaceutical compositions of-2,2-1,1-[bis-2,2'-(3,1-benzoxazin-4-one)9 ethylenes” (priority 1984, dated 1989).
# Target: T1, hyaluronidase (Bos taurus, UniProt Q2YDK3)
# T1 sequence (Q2YDK3 36-553): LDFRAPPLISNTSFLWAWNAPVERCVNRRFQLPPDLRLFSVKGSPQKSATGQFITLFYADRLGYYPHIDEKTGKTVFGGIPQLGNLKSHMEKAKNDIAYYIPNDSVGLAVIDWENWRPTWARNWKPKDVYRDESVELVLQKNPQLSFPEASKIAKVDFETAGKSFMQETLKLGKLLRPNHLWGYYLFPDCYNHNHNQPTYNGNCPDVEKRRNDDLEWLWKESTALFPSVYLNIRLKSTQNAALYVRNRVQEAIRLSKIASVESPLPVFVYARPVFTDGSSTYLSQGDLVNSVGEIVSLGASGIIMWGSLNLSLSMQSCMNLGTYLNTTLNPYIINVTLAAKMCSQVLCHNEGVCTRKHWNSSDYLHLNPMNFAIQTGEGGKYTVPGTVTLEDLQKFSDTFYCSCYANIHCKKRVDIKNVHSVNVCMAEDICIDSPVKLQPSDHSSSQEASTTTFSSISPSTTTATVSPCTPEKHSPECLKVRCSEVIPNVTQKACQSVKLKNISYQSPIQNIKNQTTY
# Test: Anti-hyaluronidase activity (modified Morgan-Elson method)
# Type: biochemical
# Details: hyaluronidase 340NF unit/ml; activating agent Compound 48/80 or CaCl2; read-out: IC50
# Description: A buffer soluticn of hyaluronidase (0.1 ml) was taken in a test tube and 0.2 ml each of the buffer solution of various compounds in various concentrations was added, and the mixture was preincubated at 37° C. for 20 minutes. Then, an activating agent (Compound 48/80 or CaCl2) (0.2 ml) was added to make the total amount 0.5 ml, which was incubated at 37° C. for 20 minutes. Then, potassium hyaluronate buffer solution (0.5 ml) was added, and the mixture was incubated at 37° C. for 40 minutes. After cooling, the mixture was treated with aqueous solution of 0.4N NaOH (0.2 ml) and neutralized to stop the reaction. The resulting product was subjecred to measurement of OD585 by the modified Morgan-Elson Method. […] (The final ccncentration of hyaluronidase was 340NF unit/ml.) [formula]
compound,measurement,value
"O=C(Nc1ccccc1C(=O)O)C(=Cc1ccccc1)C(=O)Nc1ccccc1C(=O)O [Compound 11, 2,2'-[(1,3-dioxo-2-phenylmethylene-1,3-propanediyl)diimino]bisbenzoic acid]",IC50,22 µM
